Key:
[1] = biological target: T1, E. multilocularis DNA damage-inducible 1 protein (EmuDdi1) (Echinococcus multilocularis, UniProt A0A068Y9Y4); experiment: fluorogenic aspartyl protease assay; type: biochemical
T1 sequence (A0A068Y9Y4 1-390): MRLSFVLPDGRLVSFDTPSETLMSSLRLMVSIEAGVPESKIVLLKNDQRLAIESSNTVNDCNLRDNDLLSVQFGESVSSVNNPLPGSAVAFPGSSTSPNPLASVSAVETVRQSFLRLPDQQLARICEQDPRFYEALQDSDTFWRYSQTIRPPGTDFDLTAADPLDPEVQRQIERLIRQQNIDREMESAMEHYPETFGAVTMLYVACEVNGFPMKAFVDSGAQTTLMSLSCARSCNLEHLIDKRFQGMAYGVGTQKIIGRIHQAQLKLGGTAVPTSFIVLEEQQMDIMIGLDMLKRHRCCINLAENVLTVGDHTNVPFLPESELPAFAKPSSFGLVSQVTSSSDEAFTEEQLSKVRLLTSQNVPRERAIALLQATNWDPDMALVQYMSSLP

[2] = biological target: T1, E. multilocularis DNA damage-inducible 1 protein (EmuDdi1); experiment: fluorogenic aspartyl protease assay, single concentration; type: biochemical; conditions: read-out: % inhibition at 40 μM

Row | SMILES | IC50 [1] [µM] | inhibition at 40 µM [2] [%]
1 | Cc1c(O)cccc1C(=O)N[C@@H](CSc1ccccc1)[C@H](O)CN1C[C@H]2CCCC[C@H]2C[C@H]1C(=O)NC(C)(C)C [NFV, nelfinavir] | 45.9 | –
2 | CC(C)(C)NC(=O)[C@@H]1C[C@@H]2CCCC[C@@H]2CN1C[C@@H](O)[C@H](Cc1ccccc1)NC(=O)[C@H](CC(N)=O)NC(=O)c1ccc2ccccc2n1 [SQV, saquinavir] | – | ~40
